# Measurements as given in PMC6238727 (2018).
# Entries after “also recorded” stand apart in the source; their conditions may differ.
# Assays:
# Neutrophil elastase = Neutrophil elastase at 30 nM; settings: human, up to 12 min
# Thrombin [1] = assay: Recombinant human Thrombin at 5U/ml
# thrombin [2] = assay: thrombin (Sigma Aldrich) (5 U ml^–1) in MMP buffer (10 mM CaCl2, Tris-HCl, NaCl, pH 7.5); settings: human, up to 60 min
# MMP = assay: incubation with MMP (which MMP is not given); settings: up to 10 min
# MMP-9 + Thrombin = MMP-9 + Thrombin together in MMP buffer; settings: human, up to 60 min
# [3] = lavage fluid collected from the LPS murine model
# Plasmin [4] = assay: Plasmin (Sigma Aldrich) (30 nM) in MMP buffer; settings: up to 60 min
# Factor Xa = Factor Xa (Sigma Aldrich) (500 nM) in MMP buffer; settings: up to 60 min
# [5] = platelet rich plasma (PRP) collected from the LPS murine model
# MMP-2 [6] = assay: recombinant MMP enzymes (active domains), 30 nM, in MMP buffer; settings: up to 60 min
# MMP-9 = assay: as above; settings: human, up to 60 min
# MMP-13 [7] = assay: as above; settings: up to 60 min
# [8] = excised human carotid (atherosclerotic) plaque, sliced in half lengthwise, in a well with probe solution; settings: up to 60 min
# plasmin [9] = assay: plasmin
# MMP-2 [10] = assay: Recombinant human catalytic domain MMP-2 at 30nM
# MMP-13 [11] = assay: Recombinant human catalytic domain MMP-13 at 30nM
# [12] = human tissue homogenate (healthy and fibrotic lung tissue)
# [13] = healthy (homogenised) human lung tissue
substance,measurement,setting,value
-P-Cha-G-M-F-G-,not cleaved,Neutrophil elastase,remained intact
same,not cleaved,Thrombin [1],Thrombin did not cleave any of the sequences
–NleWP(D)RGWR(D)L– | –PFGNleKβA– | –K-PEG2–,not cleaved,thrombin [2],not activated by their target enzymes
–NleWPRGWR(D)L– | –PFG(D)NleKβA– | –K-PEG2–,not cleaved,MMP,not activated by their target enzymes
-G-P-K-G-Ile-K-G-,cleaved bond,Neutrophil elastase,I-K
same,not cleaved,Thrombin [1],Thrombin did not cleave any of the sequences
–NleWPRGWR(D)L– | –PFGNleKβA– | –K-PEG2–,cleaved bond,MMP-9 + Thrombin,Arg-Gly; also recorded: Gly-Nle
same,not cleaved,[3],not cleaved by murine proteolytic (MMP and Thrombin) enzymes
same,not cleaved,Plasmin [4],completely plasmin and Factor Xa resistant
same,not cleaved,Factor Xa,completely plasmin and Factor Xa resistant
same,not cleaved,[5],not cleaved by murine proteolytic (MMP and Thrombin) enzymes
same,cleaved bond,MMP-2 [6],Gly-Nle
same,cleaved bond,MMP-9,Gly-Nle
same,cleaved bond,MMP-13 [7],Gly-Nle
same,cleaved bond,thrombin [2],Arg-Gly
same,cleaved bond,[8],Arg-Gly; also recorded: Gly-Nle
-P-F-G-M-K-ßA-,not cleaved,Neutrophil elastase,remained intact
same,not cleaved,Thrombin [1],Thrombin did not cleave any of the sequences
-P-Cha-G-M-W-G-,not cleaved,Neutrophil elastase,remained intact
same,not cleaved,Thrombin [1],Thrombin did not cleave any of the sequences
-G-P-K-G-L-K-G-,cleaved bond,plasmin [9],K-G
same,not cleaved,neutrophil lysate,not cleaved with Neutrophil lysate
same,not cleaved,Neutrophil elastase,stable to Elastase
same,not cleaved,Thrombin [1],not cleaved with Thrombin
same,cleaved bond,MMP-2 [10],G-L
same,cleaved bond,MMP-13 [11],G-L
same,cleaved bond,[12],G-L
-P-F-G-Ile-K-ßA-,cleaved bond,Neutrophil elastase,I-K
same,not cleaved,Thrombin [1],Thrombin did not cleave any of the sequences
-P-Cha-G-M-K-ßA-G-,not cleaved,Neutrophil elastase,remained intact
same,not cleaved,Thrombin [1],Thrombin did not cleave any of the sequences
-P-Cha-G-M-K-G-,not cleaved,Neutrophil elastase,remained intact
same,not cleaved,Thrombin [1],Thrombin did not cleave any of the sequences
-P-Cha-G-M-H-G-,not cleaved,Neutrophil elastase,remained intact
same,not cleaved,Thrombin [1],Thrombin did not cleave any of the sequences
-P-Cha-G-M-Y-G-,not cleaved,Neutrophil elastase,remained intact
same,not cleaved,Thrombin [1],Thrombin did not cleave any of the sequences
-P-F-G-L-K-ßA-,not cleaved,Neutrophil elastase,remained intact
same,not cleaved,Thrombin [1],Thrombin did not cleave any of the sequences
PFGNleKA attached to the hydrophilic tail -[PEG2-(D)K]3-NH2,not cleaved,[13],good solubility and stability as confirmed by MALDI TOF MS and HPLC analysis
-P-F-G-Nle-K-ßA-,not cleaved,plasmin [9],totally plasmin resistant
same,not cleaved,neutrophil lysate,not cleaved with Neutrophil lysate
same,not cleaved,Neutrophil elastase,stable to Elastase
same,not cleaved,Thrombin [1],not cleaved with Thrombin
same,cleaved bond,MMP-2 [10],G-Nle
same,cleaved bond,MMP-13 [11],G-Nle
same,cleaved bond,[12],G-Nle
-P-Cha-G-M-Y(Me)-G-,not cleaved,Neutrophil elastase,remained intact
same,not cleaved,Thrombin [1],Thrombin did not cleave any of the sequences
